Experimental data as given in the supplement of paper PMC10702517.
± gives the standard deviation.

Key:
[1] = chemical recovery by SPE of plasma after PDMS sampling; higher = better extraction; conditions: pooled human plasma, extraction method: HLB SPE of plasma after PES
[2] = chemical recovery from spiked human plasma; higher = better extraction; conditions: pooled human plasma
[3] = extraction method: PES+SPE (3 d PDMS equilibration then HLB SPE)
[4] = extraction method: SPE only (HLB 96-well)
[5] = extraction method: SPE only (HLB 96-well), PES comparison experiment
[6] = extraction method: solvent precipitation (ACN + hexane)
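For chemical recovery by SPE of plasma after PDMS sampling in this document: over 400 spiked chemicals quantified by LC-HRMS or GC-HRMS via internal standard calibration, recovery relative to spike mix added to unspiked plasma extract to correct matrix effects.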

chemical recovery by SPE of plasma ([1]; equilibration time (d): 1) | chemical recovery by SPE of plasma ([1]; equilibration time (d): 3) | chemical recovery by SPE of plasma ([1]; equilibration time (d): 6) | chemical recovery [2, 3] | chemical recovery [2, 4] | chemical recovery [2, 5] | chemical recovery [2, 6] | Compound
44.8 ± 3.8% | 50.8 ± 2.6% | 46.7 ± 1.6% | 44.5 ± 4.3% | 41.2 ± 2.9% | 40.8 ± 7.5% | 77.2 ± 3.6% | CCCCc1nc(Cl)c(CO)n1Cc1ccc(-c2ccccc2-c2nnn[nH]2)cc1 [Losartan]
0.287 ± 0.15% | 0.295 ± 0.096% | 0.145 ± 0.0059% | – | – | 38.1 ± 4.5% | 69.6 ± 4.1% | CCN(CCCCOC(=O)c1ccc(OC)c(OC)c1)C(C)Cc1ccc(OC)cc1 (configuration not stated) [Mebeverine]
14.9 ± 5% | 16.4 ± 0.37% | 14.5 ± 3% | 60.9 ± 5.4% | 45 ± 7.8% | 15.7 ± 2.9% | 54.2 ± 2.1% | Cc1cccc(Nc2ccccc2C(=O)O)c1C [Mefenamic acid]
42 ± 6% | 49.95 ± 0.36% | 46.4 ± 4.8% | – | – | 37.9 ± 3.8% | – | Cc1cccc(C(=O)O)c1N(Cn1cccn1)C(=O)C(=O)O [Metazachlor BH479-12]
54.5 ± 12% | 57.9 ± 5% | 54.7 ± 7.3% | – | 48.2 ± 5.2% | 47.4 ± 4.1% | 81 ± 4.5% | Cc1cccc(C)c1N(Cn1cccn1)C(=O)C[S+]([O-])CC(=O)O (configuration not stated) [Metazachlor BH 479-9]
44.3 ± 5.8% | 50.6 ± 2.1% | 43.4 ± 3% | – | 97.9 ± 4.8% | – | – | Cc1cccc(C)c1N(Cn1cccn1)C(=O)CS(=O)(=O)O [Metazachlor ESA]
0.224 ± 0.23% | 0.612 ± 0.32% | 0.886 ± 0.81% | 0.467 ± 0.11% | 0.483 ± 0.27% | 0.192 ± 0.098% | 44.8 ± 6.5% | Cn1ccnc1S [Methimazol]
– | 54.2 ± 4.1% | 47.4 ± 3% | – | – | 41 ± 6% | – | CCc1cccc(C)c1N(C(=O)C(=O)O)C(C)C(=O)O (configuration not stated) [Metolachlor CGA 357-704]
37.9 ± 8.1% | 46.1 ± 2.7% | 43.1 ± 7.2% | – | – | 47.9 ± 5.2% | – | CCc1cccc(C)c1NC(=O)CS(=O)(=O)O [Metolachlor CGA 368-208]
38.9 ± 5.3% | 42.9 ± 5.7% | 39.7 ± 6.8% | 0.65 ± 0.11% | 33.2 ± 2.9% | 46.9 ± 4% | 69.1 ± 3.4% | CCc1cccc(C)c1N(C(=O)CS(=O)(=O)O)C(C)COC (configuration not stated) [Metolachlor ESA]
48.6 ± 4.3% | 53 ± 2.7% | 46.3 ± 2% | 44.01 ± 0.38% | 45.5 ± 3.8% | 53.5 ± 4.5% | 70.9 ± 5.3% | COc1c(C)c2c(c(O)c1C/C=C(\C)CCC(=O)O)C(=O)OC2 [Mycophenolic acid]
23.5 ± 3.5% | 17.7 ± 3% | 9.46 ± 8.3% | – | 55.1 ± 13% | 43.2 ± 7.2% | – | CCCCCCCCCCCC[N+](C)(C)[O-] [N,N-Dimethyldodecylamine N-oxide]
56.2 ± 8.4% | 61.6 ± 4.1% | 55.1 ± 4.2% | – | – | 58.9 ± 4.9% | – | CC(=O)Nc1ccc(O)c(C(=O)O)c1 [N-Acetyl mesalazine]
11.4 ± 0.85% | 17.5 ± 1.5% | 11.5 ± 1.4% | 45.4 ± 6.6% | 48.7 ± 6.1% | – | – | CCCCNS(=O)(=O)c1ccccc1 [N-Butylbenzenesulfonamide]
0.209 ± 0.36% | – | – | – | – | 44.7 ± 7.9% | 62.7 ± 5.7% | CCCCCCCCCCCCNC [N-Methyldodecylamine]
– | 36.6 ± 5.5% | 36.5 ± 9.1% | 66 ± 2.3% | 63.8 ± 1.9% | 73.3 ± 9.3% | 70.2 ± 4.7% | COc1ccc2cc(C(C)C(=O)O)ccc2c1 (configuration not stated) [Naproxen]
– | 1.02 ± 0.27% | – | – | – | – | 17 ± 2.7% | Oc1nc(O)c2cn[nH]c2n1 [Oxypurinol]
24.1 ± 6% | 23.9 ± 1.9% | 23.3 ± 8.1% | 26.4 ± 3.3% | 23.3 ± 2.6% | 41.2 ± 3.3% | 73 ± 7.5% | O=C(O)C(F)(F)C(F)(F)C(F)(F)F [Perfluorobutanoic acid]
2.82 ± 2.2% | 2.33 ± 0.82% | 3.01 ± 1.1% | – | 8.44 ± 0.76% | 20.8 ± 2.2% | – | c1ccc2c(c1)ccc1ccccc12 [Phenanthrene]
45.8 ± 9.5% | 49.1 ± 3% | 47 ± 6.1% | 42.9 ± 3.5% | 48.6 ± 3.3% | 42.9 ± 6% | – | CCc1ccc(CCOc2ccc(CC3SC(=O)NC3=O)cc2)nc1 (configuration not stated) [Pioglitazone]
– | 48.4 ± 2.3% | 44.5 ± 1.3% | – | – | 61.1 ± 7.2% | – | C[C@]12C=CC(=O)C=C1CC[C@@H]1[C@@H]2[C@@H](O)C[C@@]2(C)[C@H]1CC[C@]2(O)C(=O)CO [Prednisolone]
0.16 ± 0.11% | 0.172 ± 0.13% | 0.00932 ± 0.01% | 0.204 ± 0.12% | 55.2 ± 14% | 43.8 ± 7.1% | 74.2 ± 4.5% | CC(CN1c2ccccc2Sc2ccccc21)N(C)C (configuration not stated) [Promethazin]

Compound | chemical recovery by SPE of plasma ([1]; equilibration time (d): 1) | chemical recovery by SPE of plasma ([1]; equilibration time (d): 3) | chemical recovery by SPE of plasma ([1]; equilibration time (d): 6) | chemical recovery [2, 3] | chemical recovery [2, 4] | chemical recovery [2, 5] | chemical recovery [2, 6]
c1ccc2sc(SNC3CCCCC3)nc2c1 [N-Cyclohexyl-2-benzothiazole-sulfenamide] | 42.3 ± 7.4% | 43.6 ± 3.3% | 42.3 ± 4.2% | – | – | 44.1 ± 3.7% | –
COc1cc(OC)nc(NC(=O)NS(=O)(=O)c2ncccc2C(=O)N(C)C)n1 [Nicosulfuron] | 51.6 ± 5.2% | 56 ± 2.5% | 50.3 ± 3.3% | – | 44.7 ± 3.3% | 49.3 ± 3.4% | 64.3 ± 2.2%
Clc1ccc(-c2ccc(Cl)cc2Cl)cc1 [PCB28] | 1.11 ± 1% | 1.62 ± 0.27% | 1.51 ± 0.26% | – | 5.86 ± 1.6% | 20.3 ± 4.4% | –
Clc1ccc(Cl)c(-c2cc(Cl)ccc2Cl)c1 [PCB52] | 1.19 ± 0.83% | 1.25 ± 0.28% | 1.09 ± 0.3% | 48.5 ± 8.4% | 3.67 ± 0.85% | 16.2 ± 3.2% | –
O=C(O)C(F)(F)C(F)(F)C(F)(F)C(F)(F)C(F)(F)C(F)(F)C(F)(F)C(F)(F)C(F)(F)F [Perfluorodecanoic acid] | 25.3 ± 4.6% | 24.1 ± 4.5% | – | – | 20.4 ± 10% | – | –
CCCOc1nn(C(=O)NS(=O)(=O)c2ccccc2C(=O)OC)c(=O)n1C [Propoxycarbazone] | 27.1 ± 5.6% | 32 ± 2.5% | 29.4 ± 1.4% | 39.2 ± 4.4% | 31.4 ± 2.8% | 43.2 ± 6.2% | 75.6 ± 5.4%
COc1nc(C)nc(NC(=O)NS(=O)(=O)c2ccccc2CCC(F)(F)F)n1 [Prosulfuron] | 48.5 ± 11% | 50.6 ± 4.8% | 45.3 ± 5.2% | 44.3 ± 3.7% | 37.9 ± 4.5% | 42.7 ± 6.3% | 75.5 ± 0.94%
